From US9480679B2, “Methods for treating malaria, tuberculosis and MAC diseases” (priority 2009, dated 2016)
≈ marks a conversion by molar mass, not a printed value. Where “and” joins values, the source holds several entries; their conditions need not be identical. Identical values can stand only once. Like-named read-outs stand apart in the source and are kept apart here.

How the values were obtained:
P. berghei = assay: Murine P. berghei model, oral 1x or 4x 100 mg/kg; assay type: in vivo; conditions: mice; for Parasitized RBC over 100 (made by FACS): individual animals
Experimental: EXAMPLE. CEM-101 activity in infected mice.
EXAMPLE. CEM-101 was tested in the murine P. berghei model as described by Vennerstrom et al. Nature 430(7002):900-904 (2004), the disclosure of which is incorporated herein by reference.

P. falciparum NF54 = assay: In vitro P. falciparum 120 hour assay (96+24); assay type: cell-based; conditions: Plasmodium falciparum, NF54
Experimental: EXAMPLE. In vitro and in vivo activity against different species of Plasmodium parasites. CEM-101 was tested against intra-erythrocytic forms of P. falciparum derived from asynchronous cultures of the strain […]. Parasite growth over 120 h was measured by the incorporation of radiolabelled [^3H]hypoxanthine (in hypoxanthine free culture medium) added after 96 h of drug incubation and 24 h prior to the termination of the test. CEM-101 was followed for 120 h. CEM-101 has delayed activity when compared to other agents.
In vitro P. falciparum data for CEM-101 in the 120 h Assay (96+24)

M. tuberculosis = conditions: 100 mg/kg once daily for 3 weeks (Zhu 2008); cited from earlier work
[1] = tested on: replicating M. tuberculosis; conditions: reported values; cited from earlier work
M. avium = conditions: Bermudez 2001; cited from earlier work

In the case of CCC[C@@H]1C[C@@H](C(=O)N[C@@H]([C@H]2O[C@H](SC)[C@H](O)[C@@H](O)[C@H]2O)[C@H](C)Cl)N(C)C1 [Clindamycin], the “Cure (%)” value (P. berghei; 4 × 100 mg/kg oral, DMSO) is reported as 0%, the “Cure (%)” value (P. berghei; 4 × 100 mg/kg oral, HPMC) is reported as 0% and the IC50 (P. falciparum NF54; 120 h assay (96+24), read-out: IC50 NF54) is reported as 5.3 ng/mL (≈ 0.0125 µM). For the same compound, the IC50 (P. falciparum NF54; 120 hour assay (96+24), read-out: IC50 NF54 Test 1) was < 7.8 ng/mL, the IC50 (P. falciparum NF54; 120 hour assay (96+24), read-out: IC50 NF54 Test 2) was 5.3 ng/mL (≈ 0.0125 µM) and the IC50 (P. falciparum NF54; 120 hour assay (96+24), read-out: IC50 NF54 Test 3) was 5.3 ng/mL (≈ 0.0125 µM).
In the case of CC[C@H]1OC(=O)[C@H](C)C(=O)[C@H](C)[C@@H](O[C@@H]2O[C@H](C)C[C@H](N(C)C)[C@H]2O)[C@](C)(OC/C=C/c2cnc3ccccc3c2)C[C@@H](C)C(=O)[C@H](C)[C@H]2NC(=O)O[C@@]21C [Cethromycin], the “reduction of CFU in the lungs of mice” value (M. tuberculosis) is listed as “failed to significantly reduce CFU”, the “MABA MIC” value [1] is listed as 4000 ng/mL and the “bactericidal activity against M. avium” value (M. avium) is listed as “lack of significant bactericidal activity”.
With CC[C@H]1OC(=O)[C@H](C)[C@@H](O[C@H]2C[C@@](C)(OC)[C@@H](O)[C@H](C)O2)[C@H](C)[C@@H](O[C@@H]2O[C@H](C)C[C@H](N(C)C)[C@H]2O)[C@](C)(O)C[C@@H](C)CN(C)[C@H](C)[C@@H](O)[C@]1(C)O [Azithromycin, reference compound] the “Activity (%)” value (P. berghei; 1 × 100 mg/kg oral, DMSO) was 70.39%, the “Survival” value (P. berghei; 1 × 100 mg/kg oral, DMSO) was 14.0 days and the “Activity (%)” value (P. berghei; 1 × 100 mg/kg oral, HPMC) was 65.19%. The “Survival” value (P. berghei; 1 × 100 mg/kg oral, HPMC) was 14.0 days, the “Activity (%)” value (P. berghei; 4 × 100 mg/kg oral, DMSO) was 99.11% and the “Cure (%)” value (P. berghei; 4 × 100 mg/kg oral, DMSO) was 0%. For the same compound, the “Survival” value (P. berghei; 4 × 100 mg/kg oral, DMSO, survivors sacrificed on Day 31) was 30.0 days, the “Activity (%)” value (P. berghei; 4 × 100 mg/kg oral, HPMC) was 99.13% and the “Cure (%)” value (P. berghei; 4 × 100 mg/kg oral, HPMC) was 0%. The “Survival” value (P. berghei; 4 × 100 mg/kg oral, HPMC, survivors sacrificed on Day 31) was 24.0 days, the “blood from treated animals parasite free or not” value (P. berghei; 4× 100 mg/kg p.o.) was “is not” and the “Visual Observation (parasites in blood)” value (P. berghei; 4× 100 mg/kg p.o., DMSO) was “pos”. For the same compound, the “Parasitized RBC over 100 (made by FACS)” value (P. berghei; 4× 100 mg/kg p.o., DMSO, 100 mg/kg) was 34.32 and 2.20 and 36.31, the “Visual Observation (parasites in blood)” value (P. berghei; 4× 100 mg/kg p.o., HPMC) was “pos” and the “Parasitized RBC over 100 (made by FACS)” value (P. berghei; 4× 100 mg/kg p.o., HPMC) was 74.04.
